From ChEMBL document CHEMBL4373679, “Overcoming synthetic challenges in targeting coenzyme A biosynthesis with the antimicrobial natural product CJ-15,801” (Medchemcomm, 2019)

How the values were obtained:
Assay type in all cases: functional, organism-based
Plasmodium falciparum [1] = assay: Antimalarial activity against Plasmodium falciparum infected in erythrocytes in presence of 100 uM pantothenic acid and TBA salt form by SYBR safe-based fluorescence assay
Plasmodium falciparum [2] = assay: Antimalarial activity against Plasmodium falciparum infected in erythrocytes in presence of 1 uM pantothenic acid and TBA salt form by SYBR safe-based fluorescence assay
Plasmodium falciparum [3] = assay: Antimalarial activity against Plasmodium falciparum infected in erythrocytes in presence of 1 uM pantothenic acid by SYBR safe-based fluorescence assay

IC50 (Plasmodium falciparum [1]) | IC50 (Plasmodium falciparum [2]) | SMILES | IC50 (Plasmodium falciparum [3])
25 µM | 25 µM | CC(C)(CO)[C@@H](O)C(=O)N/C=C/C(=O)O | 64 µM
 |  | CCCC[N+](CCCC)(CCCC)CCCC [TETRABUTHYLAMMONIUM] | 5 µM
